Experimental data as given in publication PMC6478823, “A suite of phenotypic assays to ensure pipeline diversity when prioritizing drug-like Cryptosporidium growth inhibitors” (Nature Communications, 2019).

How the values were obtained:
Type in all cases: cell-based, Cryptosporidium parvum
[1] = system: C. parvum DMC1 expression; assay: Sexual differentiation assay (DMC1 expression); conditions: compound at asexual EC90, 48-72 h; for Asexual to sexual differentiation: Mean % DMC1 inhibition (normalized to host nuclei), Average: average of replicates; for Asexual to sexual differentiation: Mean % DMC1 inhibition (normalized to host nuclei), Replicate 1a: single replicate 1; for Asexual to sexual differentiation: Mean % DMC1 inhibition (normalized to host nuclei), Replicate 2a: single replicate 2; for Asexual to sexual differentiation: Mean % DMC1 inhibition (normalized to host nuclei), Replicate 3a: single replicate 3
Text: We utilized DMC1 as a marker of C. parvum sexual development, and used the anti-DMC1 monoclonal antibody to develop a moderate-throughput high-content microscopy assay for characterizing anticryptosporidial compounds (Fig. 6a). […] Therefore, in order to enable numerical comparison of the ability of compounds to block sexual development with moderate throughput, we adopted a strategy of reporting the percent inhibition of DMC1 expression by the previously determined EC90 of each compound in the standard asexual development assay (Fig. 6c and Supplementary Table 2).
Fig. 6 Assay to measure asexual-to-sexual-stage conversion. a Schematic of the experimental approach. […] For b and c the mean and SD combined from at least two biological replicates with four technical replicates per experiment are shown. […] At given time points post-infection, infected cells were washed 3 times with PBS containing 111 mM of D-galactose, fixed for 15 min at room temperature with 4% paraformaldehyde in PBS, and permeabilized with 0.25% triton X-100 in PBS for 10 min at 37 °C. Cells were then washed 3 times with PBS and blocked at least overnight at 4 °C with 1% BSA in PBS (blocking buffer). Cells were stained with monoclonal antibody (1H10G7), either neat culture supernatant or 12.8 µg/mL of purified IgG in blocking buffer for 1 h at 37 °C, followed by 2 washes with PBS. Cells were then co-stained with a 1:500 dilution (4 µg/mL) of Alexa Fluor 568 goat anti-mouse IgG (Invitrogen, catalog# A-11004) and 1.33 µg/mL fluorescein-labeled Vicia villosa lectin (Vector Laboratories, catalog# FL-1231) diluted in blocking buffer for 1 h at 37 °C. Stains were then removed and 0.09 mM Hoechst 33258 (AnaSpec, catalog# AS-83219) also diluted in blocking buffer was added for another 15 min at 37 °C, followed by 2 PBS washes and imaging on a Nikon Eclipse Ti2000 epifluorescence microscope run with NIS-Elements Advanced Research software (Nikon, USA) and equipped with an EXi blue fluorescent microscopy camera (QImaging, Canada). For enumerating parasites, tiled 2 × 2 images with 15% overlapping edges were taken using a 40 × dry objective (0.7 NA), and for finer details, Z stack images were acquired using a 60 × oil objective (1.4 NA). Lectin positive cells in focus were first counted, followed by DMC1.
For compound dose-response studies, the same assay was performed in 384-well plates and imaged using a 20 × dry objective (NA = 0.45). Tiled 4 × 4 to 6 × 6 images were taken. Images were analyzed using ImageJ software and the custom macro provided in Supplementary Method 2.

C. parvum [2] = assay: DNA replication assay (EdU incorporation); conditions: compound at EC90; for DNA Synthesis Assay: Mean % Inhibition of EdU-labeling (normalized to parasite numbers), Replicate 1: single replicate 1; for DNA Synthesis Assay: Mean % Inhibition of EdU-labeling (normalized to parasite numbers), Replicate 2: single replicate 2; for DNA Synthesis Assay: Mean % Inhibition of EdU-labeling (normalized to parasite numbers), Average: average of replicates; for DNA Synthesis Assay: Mean % Inhibition of EdU-labeling (normalized to parasite numbers), Replicate 3: single replicate 3
Text: Following cell invasion, Cryptosporidium trophozoites grow and multiply to give rise to multinucleated type I meronts (Fig. 3a). The thymidine analog 5-ethynyl-2′-deoxyuridine (EdU) is efficiently incorporated into newly synthesized DNA, and can be detected using click chemistry. We used EdU to measure parasite intracellular DNA replication, as a surrogate for the more complex phenotype of intracellular growth and division. The approach for differentially labeling newly synthesized parasite DNA compared to host cell DNA was to take advantage of the fact that C. parvum replicates more quickly than the nearly confluent host cells. Thus, by adding EdU shortly before egress, it was possible to preferentially label replicating parasites (Fig. 3b, c). DNA staining with Hoechst labeled all of the host and parasite DNA, making it challenging to visualize and quantify parasite DNA. A simple DNA stain would also not distinguish pre-existing DNA from newly synthesized DNA (Fig. 3c). In contrast, EdU labeling only occurred with incorporation into newly synthesized DNA. Incorporated EdU was then easily stained for immunofluorescence and labeled parasites were quantified using high-content microscopy and an NIH ImageJ macro (Fig. 3c, DMSO condition). The […] hydroxyurea (10 mM), a known inhibitor of DNA replication, was used as a positive control for assay validation. […] Compounds with activity in this assay cannot be concluded to specifically target DNA replication, which is a complex phenotype.
Confluent HCT-8 cell monolayers in glass bottom plates were infected with C. parvum, and compounds were added at EC90 following invasion. At 9 h post-infection, 10 µM EdU was added, followed by incubation for another 2 h, and then washing, fixing, and staining for microscopy. […] 40 × dry objective (NA = 0.7); scale = 5 µm. Arrows indicate selected parasites with EdU-labeled DNA. d Quantification of EdU incorporation. […] Data are mean and SD of 2–5 biological replicates.
After incubation of cells with EdU for 2 h, cells were washed 3 times with PBS-D-gal and then fixed with PBS containing 4% PFA. Cells were then permeabilized and stained for EdU using the Click-iT® assay kit (Thermo Fisher Scientific, catalog# C10340) as per the manufacturer’s instructions. Cells were then imaged by focusing on parasites (note that the host cell nuclei are in a different focal plane) using a 40 × dry objective (0.7 NA) and EdU, and lectin numbers quantified using ImageJ software and the custom macro in Supplementary Method 1.

C. parvum [3] = conditions: compound at EC90; for Invasion Assay: Mean % Inhibition (parasites), Average: average of replicates; for Invasion Assay: Mean % Inhibition (parasites), Replicate 1a: single biological replicate 1; for Invasion Assay: Mean % Inhibition (parasites), Replicate 2a: single biological replicate 2
Experimental: The first step in infection is host cell invasion, which involves a complex process encompassing oocyst excystation, parasite motility, adhesion, and parasitophorous vacuole formation (Fig. 2a). Our strategy to assay for compounds affecting invasion was simply to expose C. parvum to compounds immediately after triggering excystation and throughout the invasion process, and then enumerate the parasite vacuoles after 3 h, prior to allowing the parasites to replicate (summarized in Fig. 2b).
Fig. 2 Invasion Assay. a Overview of life cycle stage investigated during the invasion assay. Representative TEM images of a C. parvum oocyst and HCT-8 cell shortly after infection (Scale bar = 500 nm). b Schematic of experimental design. […] Each point represents the mean and SD of at least two biological replicates with four technical replicates per experiment.
C. parvum invasion inhibition was measured by modifying the 48 h growth inhibition assay described above. […] In parallel, Iowa strain oocysts were excysted. […] Assay plates were incubated at 37 °C and 5% CO2 for 3 h.

## Cc1cc(/C=C/c2ccc3cc(N(C)C)ccc3[n+]2C)c(C)n1-c1ccccc1 [Pyrvinium pamoate]
[1]
  Asexual to sexual differentiation: Mean % DMC1 inhibition (normalized to host nuclei), Average: 68.07%
  Asexual to sexual differentiation: Mean % DMC1 inhibition (normalized to host nuclei), Replicate 1a: 51.94%
  Asexual to sexual differentiation: Mean % DMC1 inhibition (normalized to host nuclei), Replicate 2a: 84.21%
C. parvum [2]; EdU added 9 h post-infection for 2 h
  DNA synthesis (mean % inhibition): 88.30%
C. parvum [2]
  DNA Synthesis Assay: Mean % Inhibition of EdU-labeling (normalized to parasite numbers), Replicate 1: 94.57%
  DNA Synthesis Assay: Mean % Inhibition of EdU-labeling (normalized to parasite numbers), Replicate 2: 70.33%
C. parvum [3]
  Invasion Assay: Mean % Inhibition (parasites), Average: 25.69%
  Invasion Assay: Mean % Inhibition (parasites), Replicate 1a: 30%
  Invasion Assay: Mean % Inhibition (parasites), Replicate 2a: 22%

## NC[C@@H]1O[C@H](O[C@H]2[C@@H](O)[C@H](O[C@@H]3[C@@H](O)[C@H](N)C[C@H](N)[C@H]3O[C@H]3O[C@H](CO)[C@@H](O)[C@H](O)[C@H]3N)O[C@@H]2CO)[C@H](N)[C@@H](O)[C@@H]1O [Paromomycin]
[1]
  Asexual to sexual differentiation: Mean % DMC1 inhibition (normalized to host nuclei), Average: 43.80%
  Asexual to sexual differentiation: Mean % DMC1 inhibition (normalized to host nuclei), Replicate 1a: 58.59%
  Asexual to sexual differentiation: Mean % DMC1 inhibition (normalized to host nuclei), Replicate 2a: 65.91%
  Asexual to sexual differentiation: Mean % DMC1 inhibition (normalized to host nuclei), Replicate 3a: 6.88%
C. parvum [2]
  DNA Synthesis Assay: Mean % Inhibition of EdU-labeling (normalized to parasite numbers), Average: 18.81%
  DNA Synthesis Assay: Mean % Inhibition of EdU-labeling (normalized to parasite numbers), Replicate 1: -11.54%
  DNA Synthesis Assay: Mean % Inhibition of EdU-labeling (normalized to parasite numbers), Replicate 2: 39.99%
  DNA Synthesis Assay: Mean % Inhibition of EdU-labeling (normalized to parasite numbers), Replicate 3: 27.99%
C. parvum [2]; result in words
  effect on C. parvum DNA replication / EdU incorporation: no effect on EdU incorporation
C. parvum [3]
  Invasion Assay: Mean % Inhibition (parasites), Average: -28.42%
  Invasion Assay: Mean % Inhibition (parasites), Replicate 1a: -32%
  Invasion Assay: Mean % Inhibition (parasites), Replicate 2a: -25%
C. parvum [3]; result in words
  effect on host cell invasion / parasitophorous vacuole formation: no significant effect on parasitophorous vacuole formation

## Cc1cccc(-n2ncc3c(O)nc(-n4nc(C)cc4NC(=O)c4cc5ccccc5o4)nc32)c1 [C-1]
[1]
  Asexual to sexual differentiation: Mean % DMC1 inhibition (normalized to host nuclei), Average: 30.35%
  Asexual to sexual differentiation: Mean % DMC1 inhibition (normalized to host nuclei), Replicate 1a: 26.21%
  Asexual to sexual differentiation: Mean % DMC1 inhibition (normalized to host nuclei), Replicate 2a: 37.12%
  Asexual to sexual differentiation: Mean % DMC1 inhibition (normalized to host nuclei), Replicate 3a: 27.73%
C. parvum [2]
  DNA Synthesis Assay: Mean % Inhibition of EdU-labeling (normalized to parasite numbers), Average: 91.44%
  DNA Synthesis Assay: Mean % Inhibition of EdU-labeling (normalized to parasite numbers), Replicate 1: 100%
  DNA Synthesis Assay: Mean % Inhibition of EdU-labeling (normalized to parasite numbers), Replicate 2: 100%
  DNA Synthesis Assay: Mean % Inhibition of EdU-labeling (normalized to parasite numbers), Replicate 3: 74.32%
C. parvum [3]
  Invasion Assay: Mean % Inhibition (parasites), Average: -10.80%
  Invasion Assay: Mean % Inhibition (parasites), Replicate 1a: -29%
  Invasion Assay: Mean % Inhibition (parasites), Replicate 2a: -22%
C. parvum [3]; single biological replicate 3
  Invasion Assay: Mean % Inhibition (parasites), Replicate 3a: 9%
C. parvum [3]; single biological replicate 4
  Invasion Assay: Mean % Inhibition (parasites), Replicate 4a: -0.416%

## C[C@H]1CCC[C@H](C[C@H]2Cc3cc(O)cc(O)c3C(=O)O2)O1 [Cladosporin]
[1]
  Asexual to sexual differentiation: Mean % DMC1 inhibition (normalized to host nuclei), Average: 94.16%
  Asexual to sexual differentiation: Mean % DMC1 inhibition (normalized to host nuclei), Replicate 1a: 91.92%
  Asexual to sexual differentiation: Mean % DMC1 inhibition (normalized to host nuclei), Replicate 2a: 96.40%
C. parvum [2]
  DNA Synthesis Assay: Mean % Inhibition of EdU-labeling (normalized to parasite numbers), Average: 93.15%
  DNA Synthesis Assay: Mean % Inhibition of EdU-labeling (normalized to parasite numbers), Replicate 1: 89.75%
  DNA Synthesis Assay: Mean % Inhibition of EdU-labeling (normalized to parasite numbers), Replicate 2: 94.02%
  DNA Synthesis Assay: Mean % Inhibition of EdU-labeling (normalized to parasite numbers), Replicate 3: 89.08%
C. parvum [2]; single replicate 4
  DNA Synthesis Assay: Mean % Inhibition of EdU-labeling (normalized to parasite numbers), Replicate 4: 93.50%
C. parvum [2]; single replicate 5
  DNA Synthesis Assay: Mean % Inhibition of EdU-labeling (normalized to parasite numbers), Replicate 5: 99.40%
C. parvum [3]
  Invasion Assay: Mean % Inhibition (parasites), Average: -6.64%
  Invasion Assay: Mean % Inhibition (parasites), Replicate 1a: 5.41%
  Invasion Assay: Mean % Inhibition (parasites), Replicate 2a: -19%

## O=C(Nc1ccc(Cl)c(Cl)c1)N1CCN(c2ccc3nncn3n2)CC1 [D-28]
[1]
  Asexual to sexual differentiation: Mean % DMC1 inhibition (normalized to host nuclei), Average: 81.40%
  Asexual to sexual differentiation: Mean % DMC1 inhibition (normalized to host nuclei), Replicate 1a: 86.90%
  Asexual to sexual differentiation: Mean % DMC1 inhibition (normalized to host nuclei), Replicate 2a: 86.80%
  Asexual to sexual differentiation: Mean % DMC1 inhibition (normalized to host nuclei), Replicate 3a: 70.51%
C. parvum [2]
  DNA Synthesis Assay: Mean % Inhibition of EdU-labeling (normalized to parasite numbers), Average: 3.38%
  DNA Synthesis Assay: Mean % Inhibition of EdU-labeling (normalized to parasite numbers), Replicate 1: 14.86%
  DNA Synthesis Assay: Mean % Inhibition of EdU-labeling (normalized to parasite numbers), Replicate 2: -8.10%
C. parvum [3]
  Invasion Assay: Mean % Inhibition (parasites), Average: -13.23%
  Invasion Assay: Mean % Inhibition (parasites), Replicate 1a: -5%
  Invasion Assay: Mean % Inhibition (parasites), Replicate 2a: -22%
